Source: patent publication US11312727B1, “Macrocyclic flu endonuclease inhibitors” (Janssen BioPharma, Inc., priority 2018, dated 2022)

System: Influenza strain A549 A/WSN/33 (H1N1)
Test: microbe, parasite or virus in culture
Assay type: cell-based
Details: Influenza A virus, A549, 20 h, A549 cells, influenza A/WSN/33 (H1N1), 20 hours incubation; read-out: A549_A(H1N1) EC50

Compound	EC50 [nM]
O=C1c2c(O)c(=O)ccn2N2CN1C/C=C\CCc1ccccc1[C@H]2c1ccccc1 (single isomer, unassigned) [Compound 21A, (17*R,*Z)-4-hydroxy-16-phenyl-7,10,11,16-tetrahydro-6,17-methanobenzo[k]pyrido[1,2-b][1,2,5]triazacyclotridecine-3,5-dione]	5
O=C1c2c(O)c(=O)ccn2N2CN1C/C=C\COc1c(F)cccc1[C@H]2c1cccc(F)c1 (single isomer, unassigned) [Compound 59A, (18*R,Z)-4-fluoro-18-(3-fluorophenyl)-12-hydroxy-6,9-dihydro-18H-10,17-methanobenzo[b]pyrido[1,2-f][1]oxa[5,6,9]triazacyclotridecine-11,13-dione]	5
CC[C@H]1/C=C/COc2c(ccc(F)c2F)[C@@H](c2ccccc2C)N2CN1C(=O)c1c(O)c(=O)ccn12 (single isomer, unassigned) [Compound 167AA, (9*S,18*R,E)-9-ethyl-3,4-difluoro-12-hydroxy-18-(o-tolyl)-6,9-dihydro-18H-10,17-methanobenzo[b]pyrido[1,2-f][1]oxa[5,6,9]triazacyclotridecine-11,13-dione]	0.91
CC[C@@H]1/C=C/COc2c(ccc(F)c2F)[C@@H](c2ccccc2C)N2CN1C(=O)c1c(O)c(=O)ccn12 (single isomer, unassigned) [Compound 167AB, (9*R,18*R,E)-9-ethyl-3,4-difluoro-12-hydroxy-18-(o-tolyl)-6,9-dihydro-18H-10,17-methanobenzo[b]pyrido[1,2-f][1]oxa[5,6,9]triazacyclotridecine-11,13-dione]	0.96
CC[C@H]1/C=C/COc2c(ccc(F)c2F)[C@H](c2ccccc2C)N2CN1C(=O)c1c(O)c(=O)ccn12 (single isomer, unassigned) [Compound 167BA, (9*S,18*S,E)-9-ethyl-3,4-difluoro-12-hydroxy-18-(o-tolyl)-6,9-dihydro-18H-10,17-methanobenzo[b]pyrido[1,2-f][1]oxa[5,6,9]triazacyclotridecine-11,13-dione]	> 50
CC[C@@H]1/C=C/COc2c(ccc(F)c2F)[C@H](c2ccccc2C)N2CN1C(=O)c1c(O)c(=O)ccn12 (single isomer, unassigned) [Compound 167BB, (9*R,18*S,E)-9-ethyl-3,4-difluoro-12-hydroxy-18-(o-tolyl)-6,9-dihydro-18H-10,17-methanobenzo[b]pyrido[1,2-f][1]oxa[5,6,9]triazacyclotridecine-11,13-dione]	> 50
O=C1c2c(O)c(=O)ccn2N2CN1C1(/C=C/COc3cc(F)c(F)c4c3[C@H]2c2ncccc2SC4)CCC1 (single isomer, unassigned) [Compound 168B, (21a′*S,*E)-24′,25′-difluoro-16′-hydroxy-6′,21a′-dihydro-10′H-spiro[cyclobutane-1,13′-[7,8](epiprop[1]en[1]yl[3]ylidene)[14,21]methanopyrido[1,2-f]pyrido[2′,3′:6,7]thiepino[4,5-c][1]oxa[5,6,9]triazacyclotridecine]-15′,17′-dione]	0.6
CC(C)[C@H]1/C=C/COc2cc(F)c(F)c3c2[C@H](c2ccccc2SC3)N2CN1C(=O)c1c(O)c(=O)ccn12 (single isomer, unassigned) [Compound 169BA, (9*S,17a*R,*E)-24,25-difluoro-12-hydroxy-9-isopropyl-2,6,9,17a-tetrahydro-3,4-(epiprop[1]en[1]yl[3]ylidene)-10,17-methanobenzo[6,7]thiepino[4,5-c]pyrido[1,2-f][1]oxa[5,6,9]triazacyclotridecine-11,13-dione]	0.83
CC[C@H]1/C=C/COc2c(ccc(Cl)c2F)[C@@H](c2ccccc2)N2CN1C(=O)c1c(O)c(=O)ccn12 (single isomer, unassigned) [Compound 170BA, (9*S,18*R,E)-3-chloro-9-ethyl-4-fluoro-12-hydroxy-18-phenyl-6,9-dihydro-18H-10,17-methanobenzo[b]pyrido[1,2-f][1]oxa[5,6,9]triazacyclotridecine-11,13-dione]	24
CC[C@@H]1/C=C/COc2c(ccc(Cl)c2F)[C@@H](c2ccccc2)N2CN1C(=O)c1c(O)c(=O)ccn12 (single isomer, unassigned) [Compound 170BB, (9*R,18*R,E)-3-chloro-9-ethyl-4-fluoro-12-hydroxy-18-phenyl-6,9-dihydro-18H-10,17-methanobenzo[b]pyrido[1,2-f][1]oxa[5,6,9]triazacyclotridecine-11,13-dione]	2
CC[C@H]1/C=C/COc2c(ccc(F)c2Cl)[C@@H](c2ccccc2)N2CN1C(=O)c1c(O)c(=O)ccn12 (single isomer, unassigned) [Compound 173BA, (9*S,18*R,*E)-4-chloro-9-ethyl-3-fluoro-12-hydroxy-18-phenyl-6,9-dihydro-18H-10,17-methanobenzo[b]pyrido[1,2-f][1]oxa[5,6,9]triazacyclotridecine-11,13-dione]	26
Cc1ccccc1[C@H]1c2ccc(F)c(F)c2OC/C=C/C2(CCC2)N2CN1n1ccc(=O)c(O)c1C2=O (single isomer, unassigned) [Compound 174B, (18′*S,*E)-3′,4′-difluoro-12′-hydroxy-18′-(o-tolyl)-6′H,18′H-spiro[cyclobutane-1,9′-[10,17]methanobenzo[b]pyrido[1,2-f][1]oxa[5,6,9]triazacyclotridecine]-11′,13′-dione]	1.2
O=C1c2c(O)c(=O)ccn2N2CN1C/C=C\COc1c(ccc(F)c1F)[C@H]2c1ccccc1CF (single isomer, unassigned) [Compound 175A, (18*R,Z)-3,4-difluoro-18-(2-(fluoromethyl)phenyl)-12-hydroxy-6,9-dihydro-18H-10,17-methanobenzo[b]pyrido[1,2-f][1]oxa[5,6,9]triazacyclotridecine-11,13-dione]	2.3
O=C1c2c(O)c(=O)ccn2N2CN1[C@@]1(/C=C/COc3cc(F)c(F)c4c3[C@H]2c2ccccc2SC4)CCOC1 (single isomer, unassigned) [Compound 176BA, (3*R, 17a′*S,*E)-24′,25′-difluoro-12′-hydroxy-2′,4,5,17a′-tetrahydro-2H,6′H-spiro[furan-3,9′-[3,4](epiprop[1]en[1]yl[3]ylidene)[10,17]methanobenzo[6,7]thiepino[4,5-c]pyrido[1,2-f][1]oxa[5,6,9]triazacyclotridecine]-11′,13′-dione]	1.1
O=C1c2c(O)c(=O)ccn2N2CN1[C@]1(/C=C/COc3cc(F)c(F)c4c3[C@H]2c2ccccc2SC4)CCOC1 (single isomer, unassigned) [Compound 176BB, (3*S, 17a′*S,*E)-24′,25′-difluoro-12′-hydroxy-2′,4,5,17a′-tetrahydro-2H,6′H-spiro[furan-3,9′-[3,4](epiprop[1]en[1]yl[3]ylidene)[10,17]methanobenzo[6,7]thiepino[4,5-c]pyrido[1,2-f][1]oxa[5,6,9]triazacyclotridecine]-11′,13′-dione]	1.4
COC[C@H]1/C=C/COc2cc(F)c(F)c3c2[C@H](c2ccccc2SC3)N2CN1C(=O)c1c(O)c(=O)ccn12 (single isomer, unassigned) [Compound 177AA, (9*R,17a*R,*E)-24,25-difluoro-12-hydroxy-9-(methoxymethyl)-2,6,9,17a-tetrahydro-3,4-(epiprop[1]en[1]yl[3]ylidene)-10,17-methanobenzo[6,7]thiepino[4,5-c]pyrido[1,2-f][1]oxa[5,6,9]triazacyclotridecine-11,13-dione]	15
COC[C@@H]1/C=C/COc2cc(F)c(F)c3c2[C@H](c2ccccc2SC3)N2CN1C(=O)c1c(O)c(=O)ccn12 (single isomer, unassigned) [Compound 177AB, (9*S,17a*R,*E)-24,25-difluoro-12-hydroxy-9-(methoxymethyl)-2,6,9,17a-tetrahydro-3,4-(epiprop[1]en[1]yl[3]ylidene)-10,17-methanobenzo[6,7]thiepino[4,5-c]pyrido[1,2-f][1]oxa[5,6,9]triazacyclotridecine-11,13-dione]	0.67
O=C1c2c(O)c(=O)ccn2N2CN1C1(/C=C/COc3cc(F)cc4c3[C@@H]2c2ccccc2SC4)CCC1 (single isomer, unassigned) [Compound 180A, (17a′*R,*E)-24′-fluoro-12′-hydroxy-2′,17a′-dihydro-6′H-spiro[cyclobutane-1,9′-[3,4](epiprop[1]en[1]yl[3]ylidene)[10,17]methanobenzo[6,7]thiepino[4,5-c]pyrido[1,2-f][1]oxa[5,6,9]triazacyclotridecine]-11′,13′-dione]	29
O=C1c2c(O)c(=O)ccn2N2CN1C1(/C=C/COc3cc(F)cc4c3[C@H]2c2ccccc2SC4)CCC1 (single isomer, unassigned) [Compound 180B, (17a′*S,*E)-24′-fluoro-12′-hydroxy-2′,17a′-dihydro-6′H-spiro[cyclobutane-1,9′-[3,4](epiprop[1]en[1]yl[3]ylidene)[10,17]methanobenzo[6,7]thiepino[4,5-c]pyrido[1,2-f][1]oxa[5,6,9]triazacyclotridecine]-11′,13′-dione]	0.36
O=C1c2c(O)c(=O)ccn2N2CN1[C@H]1C[C@H]1CCOc1cccc3c1[C@H]2c1ccccc1SC3 (stereo in doubt) [Compound 166B, cis-(11a*RS,12a*RS,13S,20a*S)-15-hydroxy-6,11,11a,12,12a,20a-hexahydro-10H-7,8-(epiprop[1]en[1]yl[3]ylidene)-13,20-methanobenzo[6,7]thiepino[4,5-c]cyclopropa[j]pyrido[1,2-f][1]oxa[5,6,9]triazacyclotridecine-14,16-dione]	28
CC[C@H]1/C=C/COc2cccc3c2[C@@H](c2ccccc2SC3)N2CN1C(=O)c1c(O)c(=O)ccn12 [Compound 92BA, (9S,17aS,E)-9-ethyl-12-hydroxy-2,6,9,17a-tetrahydro-3,4-(epiprop[1]en[1]yl[3]ylidene)-10,17-methanobenzo[6,7]thiepino[4,5-c]pyrido[1,2-f][1]oxa[5,6,9]triazacyclotridecine-11,13-dione]	0.7

System: not listed separately
Test: in vitro
Details: human, CC50, uninfected A549 cells, CellTiter-Glo

Compound	CC50 [nM]
O=C1c2c(O)c(=O)ccn2N2CN1C/C=C\CCc1ccccc1[C@H]2c1ccccc1 (single isomer, unassigned) [Compound 21A, (17*R,*Z)-4-hydroxy-16-phenyl-7,10,11,16-tetrahydro-6,17-methanobenzo[k]pyrido[1,2-b][1,2,5]triazacyclotridecine-3,5-dione]	> 1000
